We go through two compounds from patent publication US8492105B2, “Screening method for an insulin resistance improving agent or a therapeutic agent for diabetes” (Fujitsu Limited, priority 2009, dated 2013).

One assay has as its system db/db mice. The assay is described as follows: Efficacy test, 28-day daily intraperitoneal injection (blood glucose, insulin, HOMA-IR). It is filed as in vivo, mouse. As for the experimental part: Fifty mice described in Test Example 2 were used as a test animal.
Specifically, 3.8 mg of the above peptide was dissolved in 4.75 mL of physiological saline to prepare a 0.8 mg/mL peptide solution (hereinafter may be referred to as “peptide solution 2”). Then, 1.75 mL of the peptide solution 2 was dissolved in 3.5 mL of physiological saline to prepare a 0.27 mg/mL peptide solution (hereinafter may be referred to as “peptide solution 3”). Further, 1 mL of the peptide solution 3 was dissolved in 2 mL of physiological saline to prepare a 0.09 mg/mL peptide solution (hereinafter may be referred to as “peptide solution 4”).
A metformin solution used for an activity control group was prepared as follows. Specifically, 120 mg of metformin (product of Sigma Co.) was dissolved in 4 mL of physiological saline to prepare a 30 mg/mL metformin solution.
The efficacy test was conducted using the following five administration groups: a solvent (physiological saline) control administration group, a 150 mg/kg metformin administration group (serving as an activity control group), a 4.00 mg/kg peptide (expressed by SEQ ID No. 1) administration group, a 1.33 mg/kg peptide administration group and a 0.44 mg/kg peptide administration group. Each administration group had 10 mice.
The above-prepared solutions were intraperitoneally injected every day to all of the mice of the test groups at the corresponding doses given in the following Table 4 for 28 days. The body weight, the fasting blood glucose level, the postprandial blood glucose level and the fasting blood insulin level were measured by the below-described measuring method according to the measurement schedule given in the following Table 5.
The calculating method for the HOMA-IR value is described below.
To measure the fasting blood glucose level and blood insulin level, 50 μL of blood was sampled from the postorbital region on Day 0, Day 14 and Day 28 after administration. The serum was obtained in the same manner as in Test Example 2.
The postprandial blood glucose level was measured using blood sampled from the tail vein on Day 1, Day 13, and Day 27 after administration.
The blood glucose level and blood insulin level were measured in the same manner as in Test Example 2.
The insulin resistance was determined by the HOMA (homeostasis model assessment) method using the following calculation formula. HOMA-IR (index of insulin resistance)=fasting insulin level (μU/mL)×fasting blood glucose level (mmol/L)/22.5
All of the values are indicated as “average value±average error.” The important differences between the groups and within each group were evaluated through one-way variance analysis and Dunnett's multiple comparison. The p-values equal to or lower than 0.05 were regarded as statistically significant.

The target in assay [1] is T1, phosphorylation of Ser727 of STAT3 by ERK2 (Homo sapiens, UniProt P28482).
T1 construct: purchased Biosource Inc. (Active ERK); Abcam Inc. (STAT3)
T1 sequence (P28482 whole entry): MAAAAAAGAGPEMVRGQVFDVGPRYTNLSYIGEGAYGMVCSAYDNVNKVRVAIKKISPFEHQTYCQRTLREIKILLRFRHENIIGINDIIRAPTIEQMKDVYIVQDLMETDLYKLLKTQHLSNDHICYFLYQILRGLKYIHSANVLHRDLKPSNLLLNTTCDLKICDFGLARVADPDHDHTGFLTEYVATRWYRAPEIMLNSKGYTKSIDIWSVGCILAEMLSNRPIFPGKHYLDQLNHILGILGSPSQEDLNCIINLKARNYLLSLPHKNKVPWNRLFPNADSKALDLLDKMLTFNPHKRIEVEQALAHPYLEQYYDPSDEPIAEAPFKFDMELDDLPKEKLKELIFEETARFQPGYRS
The assay is described as follows: Phosphorylation inhibitory activity test by western blotting (anti-pS727 STAT). It is filed as biochemical. The settings on record: 1 mM 5-iodotubercidin (final 1.14 mM), 22% DMSO (Sample 3); 30° C. 130 min; vs control Sample 1. (In general: Immunoblotting shows a protein as a band on a membrane.)
Experimental: The following ingredients were used at a composition indicated in Table 1 to prepare a reaction liquid: 5× reaction buffer (250 mM tris-HCl (pH 7.5), 50 mM magnesium chloride, 0.1% by mass bovine serum albumin (BSA) and 5 mM dithiothreitol (DTT)), Active ERK solution (0.1 mg/mL) (product of Biosource Inc.), STAT3 solution (0.2 mg/mL) (product of Abcam Inc.) and distilled water.
Also, 5-iodotubercidin (product of Calbiochem Inc.) was used as a control compound.
The 5-iodotubercidin was suspended in DMSO so that the final concentration thereof was adjusted to 5 mM.
Furthermore, distilled water was added to the samples so as to appropriately adjust the volume thereof, whereby reaction mixtures were obtained.
Each of the reaction mixtures was incubated at 30° C. for 130 min to allow Active ERK2 to phosphorylate the Ser727 of the STAT3.
After that, to terminate the phosphorylation, 0.5M ethylenediamine tetraacetate (EDTA) was added in an amount of 2.75 μL to the reaction mixtures serving as a control (Table 2: Sample 1 or 2), and was added in an amount of 5.5 μL to the reaction mixture containing the 5-iodotubercidin (Table 2: Sample 3) or the reaction mixture containing the peptide (Table 2: Sample 4). […]

The mark [2] stands for this setting: Metformin 150 mg/kg group, Day 0.
Setting [3] is: Metformin 150 mg/kg intraperitoneal every day, Day 28.
Setting [4] is: Metformin 150 mg/kg intraperitoneal every day, Day 28 minus Day 0.

`CN(C)C(=N)N=C(N)N` [Metformin, metformin]: the figures for the “Fasting blood insulin level” value in the assay with db/db mice (setting [2]) and in the assay on db/db mice (setting [3]) were 8.81 ± 1.33 ng/mL and 4.06 ± 0.84 ng/mL, respectively. Moreover, the HOMA-IR value is listed as 139.4 ± 22.7 with db/db mice (setting [2]) and 79.6 ± 17.7^# with db/db mice (Metformin 150 mg/kg intraperitoneal every day, Day 28, # p < 0.05 vs. solvent control group). Also, the “Fasting blood glucose level” value is reported as 16.3 ± 1.3 mM in the assay on db/db mice (Metformin 150 mg/kg group, Day 0, average ± average error, 10 mice); 19.3 ± 1.5 mM in the assay with db/db mice (Metformin 150 mg/kg intraperitoneal every day, Day 14); 22.0 ± 3.1 mM in the assay on db/db mice (setting [3]). In addition, the “Postprandial blood glucose level” value with db/db mice (Metformin 150 mg/kg group, Day 1, average ± average error, 10 mice) was found to be 22.5 ± 2.0 mM; in the assay on db/db mice (Metformin 150 mg/kg intraperitoneal every day, Day 13), 25.2 ± 2.0 mM; with db/db mice (Metformin 150 mg/kg intraperitoneal every day, Day 27) it was 28.1 ± 1.6 mM. The “Increment in fasting blood glucose level” value in the assay on db/db mice (setting [4]) was 5.8 ± 2.4 mM; with db/db mice (Metformin 150 mg/kg intraperitoneal every day, Day 28 minus Day 0, listed as metformin), 5.8 ± 2.4 mM. Moreover, the “Increment in fasting blood insulin level” value in the assay on db/db mice (setting [4]) is -4.94 ± 1.77 ng/mL. For the same compound, the “Increment in postprandial blood glucose level” value in the assay with db/db mice (Metformin 150 mg/kg intraperitoneal every day, Day 28 minus Day 0 as printed, # p < 0.05 vs. solvent control group) is given as 4.3 ± 2.2^# mM. Besides, the “suppression of increase in fasting blood glucose level (significance)” value with db/db mice (Metformin 150 mg/kg, Day 0 to Day 28, vs solvent control group) is “not statistically significant”. In addition, the “HOMA-IR value (index of insulin resistance), change” value with db/db mice (Metformin 150 mg/kg, Day 28) is listed as “significantly decreased”.

As to 5-iodotubercidin, the “band of STAT3 whose Ser727 has been phosphorylated (western blotting)” value in assay [1] is “lower in intensity than the band detected in the control”.
